Read-outs that look alike come from different tables or passages of the source.

In test [1] the target is T1, human recombinant 5-HT2C receptor (Homo sapiens, UniProt P28335).
T1 construct: expressed in transfected cells; host or cells: Jump-In HEK cells (membrane preparation)
T1 sequence (P28335 33-458): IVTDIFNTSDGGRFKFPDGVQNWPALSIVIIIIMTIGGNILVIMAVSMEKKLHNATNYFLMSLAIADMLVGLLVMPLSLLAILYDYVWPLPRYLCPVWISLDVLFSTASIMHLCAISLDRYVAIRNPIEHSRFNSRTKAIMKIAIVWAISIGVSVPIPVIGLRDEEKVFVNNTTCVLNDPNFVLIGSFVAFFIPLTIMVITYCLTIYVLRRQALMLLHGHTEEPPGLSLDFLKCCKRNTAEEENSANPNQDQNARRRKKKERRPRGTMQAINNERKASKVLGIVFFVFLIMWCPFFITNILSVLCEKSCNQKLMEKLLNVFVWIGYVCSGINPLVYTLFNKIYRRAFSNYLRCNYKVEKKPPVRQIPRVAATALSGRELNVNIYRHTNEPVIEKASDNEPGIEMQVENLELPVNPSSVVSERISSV
The test is described as follows: Test Example 2: 5-HT2C receptor binding inhibition test ([3H]-Mesulergine; non-specific ligand Serotonin HCl). Particulars: human serotonin 5-HT2C receptor binding activity. An outline of the steps: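 Filtration binding to membranes bearing human 5-HT2C with [3H]-mesulergine, 2 h at 37°C; non-specific binding defined with 500 µmol/L serotonin HCl, total binding with vehicle. Inhibition rate computed from cpm; Ki derived from dose-response curve, with ligand Kd from Scatchard analysis of saturation binding.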

Test [2] concerns the target T2, human recombinant 5-HT2A receptor (Homo sapiens, UniProt P28223).
T2 construct: expressed in transfected cells; host or cells: Jump-In HEK cells (membrane preparation)
The test is described as follows: Test Example 1-2: 5-HT2A receptor binding inhibition test ([3H]-Ketanserin; non-specific ligand Ketanserin). An outline of the steps: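 Membranes expressing the receptor were incubated with [3H]-ketanserin and compound for 1.5 h at 25 °C, then filtered onto plates presoaked in 50 mmol/L Tris-HCl pH 7.4 and scintillation-counted. Non-specific binding was defined with 500 µmol/L unlabeled ketanserin. Ki was taken from dose-response curves, with Kd set for each membrane lot by Scatchard analysis.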

The mark [3] stands for this setting: [3H]-Ketanserin, non-specific binding with 500 µmol/L Ketanserin, room temperature (25°C), 1.5 hours, read-out: h 5-HT2A Ki.

T2 sequence (P28223 whole entry): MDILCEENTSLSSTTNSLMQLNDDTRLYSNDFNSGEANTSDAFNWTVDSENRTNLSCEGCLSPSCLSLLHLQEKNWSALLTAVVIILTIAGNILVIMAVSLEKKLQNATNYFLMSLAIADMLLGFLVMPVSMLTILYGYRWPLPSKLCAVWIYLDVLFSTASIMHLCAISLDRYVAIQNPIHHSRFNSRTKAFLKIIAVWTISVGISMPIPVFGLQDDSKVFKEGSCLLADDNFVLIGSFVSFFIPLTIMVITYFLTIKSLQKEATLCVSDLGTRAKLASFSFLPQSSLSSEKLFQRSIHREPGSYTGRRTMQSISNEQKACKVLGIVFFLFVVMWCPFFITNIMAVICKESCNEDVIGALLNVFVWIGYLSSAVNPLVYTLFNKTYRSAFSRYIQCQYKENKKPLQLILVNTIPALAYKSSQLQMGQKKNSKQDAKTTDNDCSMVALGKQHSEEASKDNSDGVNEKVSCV

For the molecule `COCc1nc(C)c(-c2cc(Nc3ncc(-c4cnc(C(F)(F)F)nc4)cc3Cl)ncc2OCCO)c(C)n1` [Compound I-245], the Ki in test [1] turned out to be 1.41 nM; in test [2] (setting [3]) it was 5.85 nM.

Turning to `COCc1nc(C)c(-c2cc(Nc3ncc(-c4ccnc(C(F)(F)F)c4)cc3Cl)ncc2OCCO)c(C)n1` [Compound I-246], the inhibition constant (Ki) was determined as 5.25 nM in test [1] and 2.7 nM in test [2] (setting [3]).

Turning to `COCc1nc(C)c(-c2cc(Nc3ccc(C(F)(F)F)c(C)n3)ncc2OCCO)c(C)n1` [Compound I-248], the Ki was 4.78 nM in test [1] and 0.794 nM in test [2] (setting [3]).

On to `COCc1nc(C)c(-c2cc(Nc3ncc(-c4ncc(F)cn4)cc3Cl)ncc2OCCO)c(C)n1` [Compound I-249], for which the figures for the Ki in test [1] and in test [2] (setting [3]) were 4.29 nM and 5.19 nM, respectively.

Turning to `COCc1nc(C)c(-c2cc(Nc3ncc(-c4ccc(F)cc4)cc3F)ncc2OCCO)c(C)n1` [Compound I-251], the inhibition constant (Ki) came to 0.393 nM in test [1] and 0.325 nM in test [2] (setting [3]).

As for `COCc1nc(C)c(-c2cc(Nc3ncc(-c4ncc(F)cc4F)cc3Cl)ncc2OCCO)c(C)n1` [Compound I-252], the figures for the Ki in test [1] and in test [2] (setting [3]) were 3.17 nM and 3.95 nM, respectively.

For the molecule `COCc1nc(C)c(-c2cc(Nc3ncc(-c4ncc(OC)cn4)cc3Cl)ncc2OCCO)c(C)n1` [Compound I-253], the Ki turned out to be 4.42 nM in test [1] and 2.74 nM in test [2] (setting [3]).

As to `COCc1nc(C)c(-c2cc(Nc3ncc(-c4ccc(F)c(F)c4)cc3Cl)ncc2OCCO)c(C)n1` [Compound I-254], the Ki in test [1] was determined as 0.278 nM; in test [2] (setting [3]), 0.496 nM.

Take `COCc1nc(C)c(-c2cc(Nc3ncc(-c4ccc(F)c(Cl)c4)cc3Cl)ncc2OCCO)c(C)n1` [Compound I-255]: the Ki in test [1] turned out to be 0.36 nM; in test [2] (setting [3]) it was 0.52 nM.

Turning to `COCc1nc(C)c(-c2cc(Nc3ncc(-c4ccc(F)cc4F)cc3Cl)ncc2OCCO)c(C)n1` [Compound I-256], the Ki in test [1] stood at 0.322 nM; in test [2] (setting [3]) it was 0.5 nM.

Consider `COCc1nc(C)c(-c2cc(Nc3ncc(-c4cccc(F)c4)cc3Cl)ncc2OCCO)c(C)n1` [Compound I-257], for which the Ki was 0.316 nM in test [1] and 0.395 nM in test [2] (setting [3]).

Regarding `COCc1nc(C)c(-c2cc(Nc3ncc(-c4cc(F)cc(F)c4)cc3Cl)ncc2OCCO)c(C)n1` [Compound I-258], the Ki in test [1] is 0.301 nM; in test [2] (setting [3]), 0.933 nM.

For the molecule `COCc1nc(C)c(-c2cc(Nc3ncc(-c4cccc(F)c4F)cc3Cl)ncc2OCCO)c(C)n1` [Compound I-259], the figures for the Ki in test [1] and in test [2] (setting [3]) were 0.623 nM and 0.672 nM, respectively.

With `COCc1nc(C)c(-c2cc(Nc3ncc(-c4cccc(C#N)c4)cc3Cl)ncc2OCCO)c(C)n1` [Compound I-260], the values for the Ki in test [1] and in test [2] (setting [3]) were 2.06 nM and 2.05 nM, respectively.

Consider `COCc1nc(C)c(-c2cc(Nc3ncc(-c4ccc(OC(F)F)cc4)cc3Cl)ncc2OCCO)c(C)n1` [Compound I-261], for which the inhibition constant Ki turned out to be 0.482 nM in test [1] and 0.608 nM in test [2] (setting [3]).

For the molecule `COCc1nc(C)c(-c2cc(Nc3ncc(-c4cccc(C(F)F)c4)cc3Cl)ncc2OCCO)c(C)n1` [Compound I-262], the Ki turned out to be 0.541 nM in test [1] and 0.558 nM in test [2] (setting [3]).

For the molecule `COCc1nc(C)c(-c2cc(Nc3ncc(-c4ccc(Cl)cc4F)cc3Cl)ncc2OCCO)c(C)n1` [Compound I-263], the Ki in test [1] worked out at 0.318 nM; in test [2] (setting [3]) it was 0.577 nM.

With `COCc1ccc(-c2cnc(Nc3cc(-c4c(C)nc(COC)nc4C)c(OCCO)cn3)c(Cl)c2)cc1` [Compound I-264], the Ki turned out to be 0.709 nM in test [1] and 0.752 nM in test [2] (setting [3]).

For the molecule `COCc1nc(C)c(-c2cc(Nc3ncc(-c4ccc(C#N)c(F)c4)cc3Cl)ncc2OCCO)c(C)n1` [Compound I-265], the Ki in test [1] is 0.47 nM; in test [2] (setting [3]) it was 0.972 nM.

On to `COCc1nc(C)c(-c2cc(Nc3ncc(OC(C)(F)F)cc3Cl)ncc2OCCO)c(C)n1` [Compound I-266], for which the figures for the Ki in test [1] and in test [2] (setting [3]) were 2.24 nM and 1.88 nM, respectively.

As for `Cc1nc(C)c(-c2nc(Nc3ccc(OC(F)F)cc3)c(F)cc2OCCO)c(C)n1` [Compound I-268], the Ki in test [1] was found to be 0.589 nM; in test [2] (setting [3]) it was 0.958 nM.

As to `Cn1ncc(Br)c1-c1cc(Nc2ncc(OC(F)(F)F)cn2)cnc1OCCO` [Compound I-269], the Ki in test [1] is 2.85 nM; in test [2] (setting [3]), 0.295 nM.

On to `Cc1nc(C)c(-c2cc(Nc3ncc(OC(F)(F)F)cc3Cl)ncc2OCCO)c(C)n1` [Compound I-270], for which the Ki in test [1] was 2.74 nM; in test [2] (setting [3]) it was 0.938 nM.

As to `COCc1nc(C)c(-c2cc(Nc3ccc(-c4ccc(F)cc4)cn3)ncc2OCCO)c(C)n1` [Compound I-272], the Ki in test [1] came out at 1.4 nM; in test [2] (setting [3]), 0.343 nM.

As for `COCc1nc(C)c(-c2cc(Nc3ccc(-c4ccc(Cl)cc4)cn3)ncc2OCCO)c(C)n1` [Compound I-273], the Ki in test [1] worked out at 0.395 nM; in test [2] (setting [3]), 0.309 nM.

Take `Cn1ncc(Br)c1-c1cc(Nc2ncc(Cl)cn2)ncc1OCCO` [Compound I-274]: the Ki was found to be 4.5 nM in test [1] and 0.219 nM in test [2] (setting [3]).

As to `Cn1ncc(Br)c1-c1cc(Nc2cc(C(F)(F)F)c(Cl)cn2)ncc1OCCO` [Compound I-275], the figures for the Ki in test [1] and in test [2] (setting [3]) were 0.722 nM and 0.273 nM, respectively.

As for `Cn1ncc(Br)c1-c1nc(Nc2ccc(C(F)(F)F)cc2)c(F)cc1OCCO` [Compound I-276], the Ki in test [1] came out at 0.267 nM; in test [2] (setting [3]), 0.135 nM.

Regarding `Cn1ncc(Br)c1-c1cc(Nc2ccc(OC(F)(F)F)cn2)ncc1OCCO` [Compound I-277], the Ki in test [1] stood at 0.217 nM; in test [2] it was 0.186 nM.

In the case of `Cn1ncc(Br)c1-c1nc(Nc2ccc(Cl)cn2)c(F)cc1OCCO` [Compound I-278], the Ki in test [1] was found to be 3.56 nM; in test [2] (setting [3]) it was 0.203 nM.

Take `Cn1ncc(Br)c1-c1nc(Nc2ccc(C(F)(F)F)cn2)c(F)cc1OCCO` [Compound I-279]: the Ki in test [1] is 1.94 nM; in test [2] (setting [3]), 0.306 nM.

As for `Cn1ncc(Br)c1-c1nc(Nc2ccc(OC(F)(F)F)cn2)c(F)cc1OCCO` [Compound I-280], the Ki was 1.58 nM in test [1] and 0.312 nM in test [2] (setting [3]).

`Cn1ncc(Br)c1-c1cc(Nc2ncc(C3CC3)cn2)ncc1OCCO` [Compound I-281]: the figures for the Ki in test [1] and in test [2] (setting [3]) were 6.55 nM and 0.668 nM, respectively.

Turning to `Cc1cnn(C)c1-c1nc(Nc2ccc(Cl)cc2F)c(F)cc1OCCO` [Compound I-282], the inhibition constant (Ki) came out at 6.19 nM in test [1] and 0.223 nM in test [2] (setting [3]).

With `Cc1cnn(C)c1-c1nc(Nc2ccc(C(F)(F)F)cc2)c(F)cc1OCCO` [Compound I-283], the Ki in test [1] was determined as 2.41 nM; in test [2] (setting [3]) it was 0.267 nM.

`Cn1ncc(Br)c1-c1cc(Nc2ccc(Cl)cn2)ncc1OCCO` [Compound I-284]: the Ki in test [1] worked out at 2.07 nM; in test [2] (setting [3]) it was 0.301 nM.

In the case of `Cn1ncc(Br)c1-c1cc(Nc2nc3ccccc3s2)ncc1OCCO` [Compound I-285], the Ki turned out to be 7.69 nM in test [1] and 0.299 nM in test [2] (setting [3]).

Consider `Cn1ncc(Br)c1-c1cc(Nc2ncc(OC(F)F)cn2)ncc1OCCO` [Compound I-286], for which the Ki came out at 3.22 nM in test [1] and 0.6 nM in test [2] (setting [3]).

For `Cn1ncc(Br)c1-c1cc(Nc2ncc(OC(F)(F)F)cc2F)ncc1OCCO` [Compound I-287], the Ki in test [1] worked out at 0.266 nM; in test [2] (setting [3]), 0.28 nM.

On to `Cn1ncc(Br)c1-c1cc(Nc2ccc(OC(F)F)cn2)ncc1OCCO` [Compound I-288], for which the Ki in test [1] is 0.78 nM; in test [2] (setting [3]), 0.387 nM.

As for `Cn1ncc(Br)c1-c1nc(Nc2cnc(C(F)(F)F)nc2)c(F)cc1OCCO` [Compound I-289], the Ki was determined as 60.2 nM in test [1] and 0.793 nM in test [2] (setting [3]).
